Experimental data taken from ChEMBL document CHEMBL3228017, “Apparent bioisosteric replacement of--S--by NCN: synthesis of N--cyano-2-aza-A-nor-5alpha-androstan-17beta-ol acetate, an aza steroid androgen” (1979).
The source made the active and inactive calls. No cut-off for these calls is given here.

Key:
Rattus norvegicus [1] = species: Rattus norvegicus; assay: Androgenic activity in rat assessed as increase of ventral prostate weight at 3 mg in presence of testosterone (reference value: 18.1 +/- 0.91 mg); assay type: functional, Prostate gland
Rattus norvegicus [2] = species: Rattus norvegicus; assay: Myotrophic activity in rat assessed as increase of levator ani weight at 3 mg in presence of testosterone (reference value: 32.2 +/- 1.82 mg); assay type: functional
Rattus norvegicus [3] = species: Rattus norvegicus; assay: Androgenic activity in rat assessed as increase of ventral prostate weight at 3 mg (reference value: 18.1 +/- 0.91 mg); assay type: functional, Prostate gland
Rattus norvegicus [4] = species: Rattus norvegicus; assay: Androgenic activity in rat assessed as increase of seminal vesicle weight at 3 mg (reference value: 11.4 +/- 0.38 mg); assay type: functional
Rattus norvegicus [5] = species: Rattus norvegicus; assay: Antiandrogenic activity in rat assessed as reduction in seminal vesicle weight at 3 mg; assay type: functional, organism-based
Rattus norvegicus [6] = species: Rattus norvegicus; assay: Antiandrogenic activity in rat assessed as reduction in ventral prostate weight at 3 mg; assay type: functional, organism-based; settings: Prostate gland
Rattus norvegicus [7] = species: Rattus norvegicus; assay: Androgenic activity in rat assessed as increase in final body weight at 3 mg (reference value: 98 g); assay type: functional
Rattus norvegicus [8] = species: Rattus norvegicus; assay: Androgenic activity in rat assessed as increase of seminal vesicle weight at 3 mg in presence of testosterone (reference value: 11.4 +/- 0.38 mg); assay type: functional
Rattus norvegicus [9] = species: Rattus norvegicus; assay: Myotrophic activity in rat assessed as increase of levator ani weight at 3 mg (reference value: 32.2 +/- 1.82 mg); assay type: functional
Rattus norvegicus [10] = species: Rattus norvegicus; assay: Antimyotrophic activity in rat assessed as reduction in levator ani weight at 3 mg; assay type: functional, organism-based
Rattus norvegicus [11] = species: Rattus norvegicus; assay: Androgenic activity in rat assessed as increase in final body weight at 3 mg in presence of testosterone (reference value: 98 g); assay type: functional
Rattus norvegicus [12] = species: Rattus norvegicus; assay: Androgenic activity in rat assessed as increase of ventral prostate weight (reference value: 18.1 +/- 0.91 mg); assay type: functional, Prostate gland
Rattus norvegicus [13] = species: Rattus norvegicus; assay: Myotrophic activity in rat assessed as increase of levator ani weight (reference value: 32.2 +/- 1.82 mg); assay type: functional
Rattus norvegicus [14] = species: Rattus norvegicus; assay: Androgenic activity in rat assessed as increase in final body weight (reference value: 98 g); assay type: functional
Rattus norvegicus [15] = species: Rattus norvegicus; assay: Androgenic activity in rat assessed as increase of seminal vesicle weight (reference value: 11.4 +/- 0.38 mg); assay type: functional
Rattus norvegicus [16] = species: Rattus norvegicus; assay: Myotrophic activity in rat assessed as increase of levator ani weight at 0.3 mg (reference value: 32.2 +/- 1.82 mg); assay type: functional
Rattus norvegicus [17] = species: Rattus norvegicus; assay: Androgenic activity in rat assessed as increase of ventral prostate weight at 0.3 mg (reference value: 18.1 +/- 0.91 mg); assay type: functional, Prostate gland
Rattus norvegicus [18] = species: Rattus norvegicus; assay: Androgenic activity in rat assessed as increase in final body weight at 0.3 mg (reference value: 98 g); assay type: functional
Rattus norvegicus [19] = species: Rattus norvegicus; assay: Androgenic activity in rat assessed as increase of seminal vesicle weight at 0.3 mg (reference value: 11.4 +/- 0.38 mg); assay type: functional

Which results are given for `CC(=O)O[C@H]1CC[C@H]2[C@@H]3CC[C@H]4CN(C#N)C[C@]4(C)[C@H]3CC[C@]12C`?
Activity (Rattus norvegicus [1]): 61.6 mg; Activity (Rattus norvegicus [2]): 58.7 mg; Activity (Rattus norvegicus [3]): 56.1 mg; Activity (Rattus norvegicus [4]): 33.3 mg; inhibition (Rattus norvegicus [5]): inactive; inhibition (Rattus norvegicus [6]): inactive; Activity (Rattus norvegicus [7]): 95 g; Activity (Rattus norvegicus [8]): 40.6 mg; Activity (Rattus norvegicus [9]): 55.8 mg; inhibition (Rattus norvegicus [10]): inactive; Activity (Rattus norvegicus [11]): 99 g

How did the Activity (Rattus norvegicus [12]) turn out when `CC(=O)O[C@H]1CC[C@H]2[C@@H]3CC[C@H]4CN(Cc5ccccc5)C[C@]4(C)[C@H]3CC[C@]12C` was run?
Its Activity is 19.4 mg.

What about the Activity (Rattus norvegicus [13]) of the same compound?
Its Activity is 24.2 mg.

And the Activity (Rattus norvegicus [14])?
Its Activity is 89 g.

And the Activity (Rattus norvegicus [15])?
Its Activity is 10.7 mg.

For `C[C@]12CC[C@H]3[C@@H](CCC4=CC(=O)CC[C@@]43C)[C@@H]1CC[C@@H]2O` [TESTOSTERONE], which Activity (Rattus norvegicus [16]) is on record?
Its Activity is 37.8 mg.

What about the Activity (Rattus norvegicus [17]) of the same compound?
Its Activity is 35.3 mg.

And the Activity (Rattus norvegicus [18])?
Its Activity is 97 g.

What about the Activity (Rattus norvegicus [19]) of the same compound?
The Activity was 12.9 mg.
